System: Bifidobacterium longum BL999
Assay: Pre-screening of single ingredients as protective agent: viability loss after spray-drying, storage and reconstitution
Format: cell-based
Conditions: for storage stability / losses during storage and reconstitution: storage at T=37° C.; for storage stability / losses during storage and reconstitution / viability loss after 8 weeks: aw=0.22, after spray-drying; for protective effect during drying: individual ingredient 18.2 wt % with maltodextrin DE12 and sodium ascorbate, compared to the reference; for viability loss after 8 weeks: 8 weeks storage at T=37° C.
Experimental: A fermentation medium suitable for the growth of Bifidobacterium longum BL999 was inoculated with 2% frozen-thawed bacteria.
The centrifuged biomass was then conditioned according to the following process. […] Then 300 g of centrifuged biomass were filled into a beaker, which was placed in an ice water bath. The total solids content of the biomass was measured and the protective agent solution was added at a ratio of protective agents to biomass of 55/45 (based on dry weight). The mixture was gently agitated in the ice water bath for one hour. The pH was then adjusted to pH7.
The conditioned concentrate was then spray-dried on a lab-scale spray-dryer (Buechi, B-290, Flawil, Switzerland). The air temperature was 140° C. and the tower temperature was adjusted by the concentrate flow to T=70° C. During drying, the beaker containing the concentrate was cooled in an ice water bath.
In a first round of trials, 38 ingredients were selected as potential protective agents. The effect of those ingredients on the stability of Bifidobacterium longum BL999 was tested by spray-drying biomass with a protective agent comprising maltodextrin DE12, sodium ascorbate and one single additional ingredient from the list of 38 compounds to be screened in the following concentrations:
This control was used as a reference to evaluate the effect of the protective agents on the stability of Bifidobacterium longum BL999 during spray-drying, storage and reconstitution.
The 38 culture powders and the control were prepared as described above, the conditioning being carried out with one of the 38 protective agents.
The cell concentration of B. longum in the powder was detected by classical plating methods. Such classical plating methods are summarized in the microbiology book: James Monroe Jay, Martin J. Loessner, David A. Golden. […] Modern food microbiology. 7th edition, Springer Science, New York, N.Y. The cells were counted in the concentrate before drying, in the culture powder directly after drying and after 2, 3, 4, 6, 8 and/or 12 weeks storage in a climatic chamber at T=37° C. above saturated potassium acetate solution (aw=0.22). The cell counts after drying and after storage were determined after reconstitution of the powder with a reconstitution medium, as known by the person skilled in the art, who is well aware of the above-mentioned plating methods.
The following formulae were used for the evaluation of the data:
where X0 is the number of micro-organisms at time t=0 and Xt the number of microorganisms at time t. When the microbiological counts were measured in k replicates, x0 is the average number of micro-organisms at time t=0 and, xt is the average number of micro-organisms at time t, the average log loss at time t is given by:
The tested individual ingredients were selected among several groups of molecules: sugars, sugar alcohols, amino acids and proteins. All tested ingredients within a group were spray-dried on the same day and the reference was spray dried again with each group, also on the same day.

[1] = individual ingredient 18.2 wt %

Structure (SMILES): C[C@H](N)C(=O)O [alanine, L-alanine]
- storage stability / losses during storage and reconstitution [1]: lowest losses during storage and reconstitution

Structure (SMILES): N=C(N)NCCC[C@H](N)C(=O)O [arginine, L-arginine]
- storage stability / losses during storage and reconstitution [1]: lowest losses during storage and reconstitution

Structure (SMILES): N[C@@H](CS)C(=O)O [cysteine, L-cysteine]
- viability loss during drying (spray-drying, protective agent of maltodextrin DE12 68.2 wt %, sodium ascorbate 13.6 wt %, individual ingredient 18.2 wt %): 0.2 log
- storage stability / losses during storage and reconstitution [1]: lowest losses during storage and reconstitution

Structure (SMILES): OCC(O)CO [glycerol]
- protective effect during drying (spray-drying): light protective effect
- storage stability / losses during storage and reconstitution [1]: majority of the bacteria of this variant died already after two weeks storage

Structure (SMILES): OC[C@@H](O)[C@@H](O[C@@H]1O[C@H](CO)[C@H](O)[C@H](O)[C@H]1O)[C@H](O)[C@@H](O)CO [lactitol]
- viability loss after 8 weeks [1]: lowest

Structure (SMILES): NCCCC[C@H](N)C(=O)O [lysine, L-lysine]
- storage stability / losses during storage and reconstitution [1]: lowest losses during storage and reconstitution

Structure (SMILES): OC[C@@H](O)[C@@H](O)[C@H](O)[C@H](O)CO [mannitol]
- viability loss after 8 weeks [1]: lowest
- protective effect during drying (spray-drying): light protective effect

Structure (SMILES): O[C@H]1[C@H](O)[C@@H](O)[C@H](O)[C@@H](O)[C@H]1O [myo-inositol]
- viability loss after 8 weeks [1]: lowest

Structure (SMILES): O=C1O[C@H]([C@@H](O)CO)C([O-])=C1O.[Na+] [sodium ascorbate]
- protective effect during drying (spray-drying): does not show significant effect on the bacterial survival during the drying process

Structure (SMILES): OC[C@@H](O)[C@@H](O)[C@H](O)[C@@H](O)CO [sorbitol]
- viability loss after 8 weeks [1]: lowest
- protective effect during drying (spray-drying): light protective effect

Structure (SMILES): OC[C@H]1O[C@@](CO)(O[C@H]2O[C@H](CO)[C@@H](O)[C@H](O)[C@H]2O)[C@@H](O)[C@@H]1O [sucrose]
- storage stability / losses during storage and reconstitution [1]: most efficient ingredient

Structure (SMILES): OC[C@@H](O)[C@H](O)[C@@H](O)CO [xylitol]
- protective effect during drying (spray-drying): light protective effect

Reference: US11999941B2, “Composition suitable for protecting microorganisms” (SOCIÉTÉ DES PRODUITS NESTLÉ S.A., priority 2015, dated 2024)
